Columns and labels:
Test in all cases: Anti-fungal activity of Sarcotoxin 1a in vitro (hyphal area on agar plate)
Format in all cases: cell-based
[1] = system: Rhizoctonia solani AG-4 1272; conditions: Czapek's modified medium, 22° C. in the dark; FIG. 13
Procedure: (§1) Sarcotoxin 1a was measured for an anti-fungal activity against Fusarium oxysporum F-3, Rhizoctonia solani, and Rhizoctonia solani AG-4 1272.
(§2) It has not been known if Sarcotoxin 1a has an anti-fungal activity and how to measure the activity. Therefore, a pre-culture medium and a test medium were variously studied. The pre-culture medium, in which a lawn may be uniformly enlarged within a short period of time, was selected. The test medium, which controls the extension of hyphae as much as possible and allows easy confirmation, was selected.
(§3) (i) Czapek's modified medium (10 g of sucrose, 0.5 g of MgSO4.7H2O, 2.0 g of NaNO3, 0.01 g of Fe2(SO4)3, 1.0 g of K2HPO4, 0.5 g of KCl, 15 g of agarose per liter, pH 6.8 to 7.0; used for Rhizoctonia solani AG-4 1272), (ii) 5-fold diluted PDA medium (7.8 g of Bacto (Trademark) Poteto Dextrose Agar, 12 g of agarose per liter; used for Fusarium oxysporum F-3), (iii) Na2HPO4—NaH2PO4 buffer (15 g/l agarose, pH 5.8; used for Rhizoctonia solani).
(§4) The media for detection were autoclaved. When the media was cooled to 50° C., Sarcotoxin 1a (synthesized by a peptide synthesis and purified to 99% or more by HPLC) was added to each medium. Each of the resulting media was dispensed into a 12-well microplate at 400 μl per well and solidified.
(§5) Fusarium oxysporum F-3, Rhizoctonia solani, and Rhizoctonia solani AG-4 1272 were respectively pre-cultured in a PDA media (39 g/l Bacto (Trademark) Poteto Dextrose Agar) at 22° C. for 2 days.
(§6) An outermost lawn of each hypha spreading over almost the entire surface of the PDA medium of a 9 cm-petri dish was punched with a cork borer with a diameter of 4 mm, and each fungi was placed in the center of a well of a test plate in such a manner that the surface of the layer faced down. Each test plate for detection was kept at 22° C. in the dark.
(§7) Each test plate inoculated with the above-mentioned pathogenic fungi was measured for the size of each hypha growing under transmitted light at established periods, and the area of each hypha and a standard deviation were calculated (see FIGS. 12, 13, and 14). […]

[2] = system: Fusarium oxysporum F-3; conditions: 5-fold diluted PDA medium, 22° C. in the dark; FIG. 12
Procedure: as §1, §2, §3, §4, §5, §6, §7

[3] = system: Rhizoctonia solani; conditions: Na2HPO4-NaH2PO4 buffer agarose pH 5.8, 22° C. in the dark; FIG. 14
Procedure: as §1, §2, §3, §4, §5, §6, §7

Measured: anti-fungal properties (area of each hypha)

Sarcotoxin 1a (GWLKKIGKKIERVGQHTRDATIQGLGIAQQAANVAATAR) [anti-bacterial peptide derived from Boettherisca peregrina (Diptera insect); synthesized by a peptide synthesis and purified to 99% or more by HPLC]
concentration-dependent manner: all assays above
